In patent US9518033B2, “(4E)-4-(4-substituted benzylideneamino)-2,3-dihydro-3-substituted-2-thioxothiazole-5-carbonitriles as A2AR antagonist and process for preparation thereof” (COUNCIL OF SCIENTIFIC & INDUSTRIAL RESEARCH, priority 2013, dated 2016):
Values joined by “and” are separate entries in the source; they are usually repeats but may differ in a detail not shown here. Equal entries are not always repeated.

Legend:
human A2AR = biological target: T1, human A2AR (Homo sapiens, UniProt P29274); assay: Radioligand competitive binding assay, [3H] ZM 241385 displacement; conditions: for Ki: membranes of transfected HEK 293T cells, 1 nM [3H] ZM 241385, read-out: Ki A2A; for A1/A2A (selectivity): ratio Ki A1 / Ki A2A; for binding affinity and selectivity (in words): A2AR over A1R
T1 construct: expressed in transfected cells; host or cells: HEK 293T
Procedure: Cells were washed twice with ice-cold PBS (pH 7.4). Pellet of washed cells was resuspended in hypotonic lysis buffer (10 mM NaCl, 2 mM MgCl2, 1 mM DTT, 10 mM Hepes, 2 mM PMSF, pH 7.4) and sonicated (4 cycles of 10 s duration each). Homogenate were centrifuged at 2,500 rpm for 10 minutes at 4° C. Resulting supernatants was again centrifuged at 38,000 rpm for 30 minutes at 4° C. Pellets obtained were resuspended in Tris-HCl (pH 7.4) buffer. […] Aliquots of membrane proteins from both A2AR and A1R were rapidly frozen and stored at −20° C. Radioligand [^3H] […] DPCPX were purchased from American Radiolabeled Chemicals, St. Louis, USA.
About 10 μg of membrane protein was added to each well of a 96-well filter plate. Incubation buffer containing adenosine deaminase (2.5 U/ml) was added to the membrane protein and incubated at 37° C. for 1 h, to remove endogenous adenosine. Varying concentrations (1 pM to 1 μM) of test compounds of general formula A was added in duplicate and volume was adjusted to 50 μl by adding incubation buffer. […] Filter plates were incubated at 26° C. for 30 minutes and reaction was terminated by rapid filtration of unbound radioligands. Filters containing ligand bound receptors were washed three times with ice-cold washing buffer to completely remove any unbound radioligand or receptor. Finally, 100 μl of scintillation fluid was added to each well and incubated overnight at room temperature. β-counts emitted from bound radioligands ([^3H] ZM241385 and [^3H] DPCPX) were counted using β-counter. Duplicate values of β-counts per minute at corresponding concentrations (1 pM to 1 μM) were added to the data sheet of graph pad prism 4.0. Concentration values were considered as X-values and counts per minute were considered as Y-values (in duplicate). X-values were transformed into log X and Ki value was calculated using nonlinear regression (curve fit program).

human A1R = biological target: T2, human A1R (Homo sapiens, UniProt P30542); assay: Radioligand competitive binding assay, [3H] DPCPX displacement; conditions: membranes of transfected HEK 293T cells, 1 nM [3H] DPCPX; read-out: Ki A1
T2 construct: expressed in transfected cells; host or cells: HEK 293T
T2 sequence (P30542 1-326): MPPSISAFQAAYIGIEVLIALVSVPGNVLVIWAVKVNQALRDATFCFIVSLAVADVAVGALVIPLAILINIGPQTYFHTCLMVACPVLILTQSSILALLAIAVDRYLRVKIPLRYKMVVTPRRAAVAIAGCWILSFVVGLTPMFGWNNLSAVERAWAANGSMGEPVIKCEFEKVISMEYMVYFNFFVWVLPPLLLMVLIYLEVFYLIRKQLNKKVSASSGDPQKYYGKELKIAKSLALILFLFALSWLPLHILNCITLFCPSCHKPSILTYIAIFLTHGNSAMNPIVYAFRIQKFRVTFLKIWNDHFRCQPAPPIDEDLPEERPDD
Procedure: About 1×10^6 cells per ml of transfected HEK 293T cells with human A2AR and A1R were centrifuged at 2,500 rpm for 2 minutes in 15 ml centrifuge tubes. Cells were washed twice with ice-cold PBS (pH 7.4). Pellet of washed cells was resuspended in hypotonic lysis buffer (10 mM NaCl, 2 mM MgCl2, 1 mM DTT, 10 mM Hepes, 2 mM PMSF, pH 7.4) and sonicated (4 cycles of 10 s duration each). Homogenate were centrifuged at 2,500 rpm for 10 minutes at 4° C. Resulting supernatants was again centrifuged at 38,000 rpm for 30 minutes at 4° C. Pellets obtained were resuspended in Tris-HCl (pH 7.4) buffer. Membrane protein concentrations were determined using Lowry method (Lowry et al., 1951). Aliquots of membrane proteins from both A2AR and A1R were rapidly frozen and stored at −20° C. Radioligand [^3H] ZM 241385 and [^3H] DPCPX were purchased from American Radiolabeled Chemicals, St. Louis, USA.
About 10 μg of membrane protein was added to each well of a 96-well filter plate. Incubation buffer containing adenosine deaminase (2.5 U/ml) was added to the membrane protein and incubated at 37° C. for 1 h, to remove endogenous adenosine. Varying concentrations (1 pM to 1 μM) of test compounds of general formula A was added in duplicate and volume was adjusted to 50 μl by adding incubation buffer. Further, constant concentration of radioligands (1 nM for [^3H] ZM 241385 and 1 nM of [^3H] DPCPX) was added to respective wells and final volume was adjusted to 200 μl by adding the incubation buffer. Filter plates were incubated at 26° C. for 30 minutes and reaction was terminated by rapid filtration of unbound radioligands. Filters containing ligand bound receptors were washed three times with ice-cold washing buffer to completely remove any unbound radioligand or receptor. Finally, 100 μl of scintillation fluid was added to each well and incubated overnight at room temperature. β-counts emitted from bound radioligands ([^3H] ZM241385 and [^3H] DPCPX) were counted using β-counter. Duplicate values of β-counts per minute at corresponding concentrations (1 pM to 1 μM) were added to the data sheet of graph pad prism 4.0. Concentration values were considered as X-values and counts per minute were considered as Y-values (in duplicate). X-values were transformed into log X and Ki value was calculated using nonlinear regression (curve fit program). The calculated Ki values for A2AR and A1R are given bellow (table 1).

[1] = test system: haloperidol induced catalepsy; assay: Haloperidol induced catalepsy in mice; format: in vivo, Swiss Albino male mice; conditions: for catalepsy score: haloperidol 2.5 mg/kg, after 120 min
Procedure: Adult Swiss Albino male mice (4-6 weeks, 20-30 g) were pro-cured from National Institute of Communicable Diseases, Delhi, India and were kept under controlled conditions of temperature (22±1° C.), humidity (60±5%), and illumination (12 h light; 12 h darkness) at the animal house, Dr. B. R. Ambedkar Centre for Bio-medical Research, University of Delhi, Delhi, India. The experimental protocol met the National Guidelines on the ‘Proper Care and Use of Animals in Laboratory Research’ (Indian National Science Academy, New Delhi) and was approved by the Animal Ethics Committee of the department. The procedures adhered to the NIH Guidelines for the Care and Use of Laboratory Animals.
Double distilled filtered and deionized water (Milli-Q-system Waters, Milford, Mass.) was used through out the study. […] Mice were divided into seven groups of four mice each. […] Saline and 1% acacia in saline were injected to two control groups.
The inability of an animal to correct an externally imposed posture (Catalepsy score) was measured at different time intervals with both limbs on a square wooden block (3 cm high) by placing the animals on a flat horizontal surface. The length of time that animals held the bar without any voluntary movement was recorded, with a cutoff time of 3 min. Catalepsy score of each mice in a group was taken to compute the mean value of the group.

human A2A receptors = biological target: T3, human A2A receptors (Homo sapiens, UniProt P29274); assay: cAMP functional assay in NECA stimulated HEK293T cells; format: cell-based
T3 construct: expressed in transfected cells; host or cells: HEK 293T
Procedure: Standard curve was prepared using Logit-Log Paper plot by drawing percent bound (B/Bo) versus concentration of cAMP for the standards. The concentration of the cAMP in the samples was determined by interpolation.

[2] = 10 mg/kg ip pre-treatment, mean±SEM, n=4

T1 sequence (P29274 whole entry): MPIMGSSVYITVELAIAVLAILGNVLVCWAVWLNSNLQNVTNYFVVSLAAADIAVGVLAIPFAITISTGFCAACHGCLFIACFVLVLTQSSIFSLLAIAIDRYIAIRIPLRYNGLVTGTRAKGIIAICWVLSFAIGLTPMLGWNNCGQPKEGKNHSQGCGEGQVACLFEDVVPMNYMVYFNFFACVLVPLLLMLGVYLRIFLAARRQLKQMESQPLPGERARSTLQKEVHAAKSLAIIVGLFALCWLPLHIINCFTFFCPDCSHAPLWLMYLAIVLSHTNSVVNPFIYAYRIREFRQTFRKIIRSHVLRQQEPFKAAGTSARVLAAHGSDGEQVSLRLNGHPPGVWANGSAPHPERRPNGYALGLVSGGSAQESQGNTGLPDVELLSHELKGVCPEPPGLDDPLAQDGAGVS
T3 sequence (P29274 whole entry): as above

In the case of `CCn1c(/N=C/c2ccc(Br)cc2)c(C#N)sc1=S` [Compound 2j, (4E)-4-(4-Bromobenzylideneamino)-3-ethyl-2,3-dihydro-2-thioxothiazole-5-carbonitrile], the Ki (human A2AR) is reported as 0.01 nM and the “A1/A2A (selectivity)” value (human A2AR) is reported as 0.074.
For `N#Cc1sc(=S)n(-c2ccccc2)c1/N=C/c1ccc(F)cc1` [Compound 2e, (4E)-4-(4-flurobenzylideneamino)-3-phenyl-2,3-dihydro-2-thioxothiazole-5-carbonitrile], the Ki (human A2AR) was 0.0047 nM and the “A1/A2A (selectivity)” value (human A2AR) was 0.13.
With `N#Cc1sc(=S)n(CCc2ccccc2)c1/N=C/c1ccc(Br)cc1` [Compound 2m, (4E)4-(4-bromobenzylideneamino)-3-phenylethyl-2,3-dihydro-2-thioxothiazole-5-carbonitrile] the Ki (human A2AR) was 0.067 nM, the “A1/A2A (selectivity)” value (human A2AR) was 3.73 and the Ki (human A1R) was 0.25 nM.
For `N#Cc1sc(=S)n(-c2ccccc2)c1/N=C/c1ccc(Br)cc1` [Compound 2n, (4E)4-(4-bromobenzylideneamino)-3-phenyl-2,3-dihydro-2-thioxothiazole-5-carbonitrile], the catalepsy score [1, 2] was 0.75±0.144, the catalepsy score ([1]; pre-treatment at 5, 10, 15, 20 mg/kg) was 0.75±0.140 and the “catalepsy score, compound alone” value ([1]; without haloperidol, up to 120 minutes) was “zero”. For the same molecule, the Ki (human A2AR) was 0.004 nM and 0.0042 nM, the Ki (human A1R) was 186 nM and the melting point was 185 to 187 °C.
With `CCCn1c(/N=C/c2ccc(Cl)cc2)c(C#N)sc1=S` [Compound 2g, (4E)4-(4-chlorobenzylideneamino)-3-propyl-2,3-dihydro-2-thioxothiazole-5-carbonitrile] the Ki (human A2AR) was 54.8 nM, the “A1/A2A (selectivity)” value (human A2AR) was 0.042 and the Ki (human A1R) was 2.32 nM.
With `Nc1nc2c(cnn2CCc2ccccc2)c2nc(-c3ccco3)nn12` [SCH58261, reference compound] the catalepsy score [1, 2] was 0.65±0.125, the catalepsy score ([1]; 10 mg/kg ip pre-treatment, mean±SEM, n=4, listed as SCH 58261) was 0.625±0.125 and the “selectivity to A2AR” value (human A2AR; reference SCH58261) was 483 fold. It also gave a cAMP concentration (human A2A receptors) of 0.55 pmol/mL.
In the case of `CCCn1c(/N=C/c2ccc(Br)cc2)c(C#N)sc1=S` [Compound 2k, (4E)4-(4-bromobenzylideneamino)-3-propyl-2,3-dihydro-2-thioxothiazole-5-carbonitrile], the Ki (human A2AR) is reported as 1.8 nM, the “A1/A2A (selectivity)” value (human A2AR) is reported as 337.05 and the Ki (human A1R) is reported as 607 nM.
For `CCCCn1c(N=Cc2ccc(F)cc2)c(C#N)sc1=S` [Compound 2c, (4E)-4-flurobenzylideneamino)-3-butyl-2,3-dihydro-2-thioxothiazole-5-carbonitrile], the Ki (human A2AR) was 0.027 nM, the “A1/A2A (selectivity)” value (human A2AR) was 618.51 and the Ki (human A1R) was 16.7 nM.
In the case of `CCn1c(/N=C/c2ccc(F)cc2)c(C#N)sc1=S` [Compound 2a, (4E)-4-(4-fluorobenzylideneamino)-3-ethyl-2,3-dihydro-2-thioxothiazole-5-carbonitrile], the Ki (human A2AR) is reported as 11 nM and the “A1/A2A (selectivity)” value (human A2AR) is reported as 0.000053.
In the case of `CCCCn1c(/N=C/c2ccc(Br)cc2)c(C#N)sc1=S` [Compound 2l, (4E)-4-(4-bromobenzylideneamino)-3-butyl-2,3-dihydro-2-thioxothiazole-5-carbonitrile], the Ki (human A2AR) is reported as 7.61 nM, the “A1/A2A (selectivity)” value (human A2AR) is reported as 0.013 and the Ki (human A1R) is reported as 0.1 nM.
For `CCCCn1c(/N=C/c2ccc(Cl)cc2)c(C#N)sc1=S` [Compound 2h], the “binding affinity and selectivity (in words)” value (human A2AR) was “both high binding affinity and selectivity”, the Ki (human A2AR) was 9.6 nM and the “A1/A2A (selectivity)” value (human A2AR) was 2565 and 2565.62. It also gave a Ki (human A1R) of 24600 nM.
For `CCCn1c(/N=C/c2ccc(F)cc2)c(C#N)sc1=S` [Compound 2b, (4E)4-(4-fluorobenzylideneamino)-3-propyl-2,3-dihydro-2-thioxothiazole-5-carbonitrile], the “binding affinity and selectivity (in words)” value (human A2AR) was “both high binding affinity and selectivity”, the Ki (human A2AR) was 0.03 nM and the “A1/A2A (selectivity)” value (human A2AR) was 3393.3. It also gave a Ki (human A1R) of 102 nM.
For `N#Cc1sc(=S)n(-c2ccccc2)c1/N=C/c1ccc(Cl)cc1` [Compound 2i, (4E)4-(4-chlorobenzylideneamino)-3-phenyl-2,3-dihydro-2-thioxothiazole-5-carbonitrile], the “binding affinity and selectivity (in words)” value (human A2AR) was “both high binding affinity and selectivity”, the Ki (human A2AR) was 0.14 nM and the “A1/A2A (selectivity)” value (human A2AR) was 2947 and 2947.85. For the same molecule, the Ki (human A1R) was 413 nM and the melting point was 187 to 189 °C.
In the case of `N#Cc1sc(=S)n(CCc2ccccc2)c1N=Cc1ccc(F)cc1` [Compound 2d, (4E)-4-(4-flurobenzylideneamino)-3-phenylethyl-2,3-dihydro-2-thioxothiazole-5-carbonitrile], the Ki (human A2AR) is reported as 2.64 nM, the “A1/A2A (selectivity)” value (human A2AR) is reported as 336.81 and the Ki (human A1R) is reported as 889 nM.
In the case of `CCn1c(/N=C/c2ccc(Cl)cc2)c(C#N)sc1=S` [Compound 2f, (4E)-4-(4-chlorobenzylideneamino)-3-ethyl-2,3-dihydro-2-thioxothiazole-5-carbonitrile], the “A1/A2A (selectivity)” value (human A2AR) is reported as 13.76.
